Results: ChEMBL document CHEMBL1158488, “Investigation of the relative cellular permeability of DNA-binding pyrrole-imidazole polyamides” (J Med Chem, 2009)

Key:
Glucocorticoid receptor [1] = target: T1, Glucocorticoid receptor (Homo sapiens, UniProt P04150)
T1 sequence (P04150 whole entry): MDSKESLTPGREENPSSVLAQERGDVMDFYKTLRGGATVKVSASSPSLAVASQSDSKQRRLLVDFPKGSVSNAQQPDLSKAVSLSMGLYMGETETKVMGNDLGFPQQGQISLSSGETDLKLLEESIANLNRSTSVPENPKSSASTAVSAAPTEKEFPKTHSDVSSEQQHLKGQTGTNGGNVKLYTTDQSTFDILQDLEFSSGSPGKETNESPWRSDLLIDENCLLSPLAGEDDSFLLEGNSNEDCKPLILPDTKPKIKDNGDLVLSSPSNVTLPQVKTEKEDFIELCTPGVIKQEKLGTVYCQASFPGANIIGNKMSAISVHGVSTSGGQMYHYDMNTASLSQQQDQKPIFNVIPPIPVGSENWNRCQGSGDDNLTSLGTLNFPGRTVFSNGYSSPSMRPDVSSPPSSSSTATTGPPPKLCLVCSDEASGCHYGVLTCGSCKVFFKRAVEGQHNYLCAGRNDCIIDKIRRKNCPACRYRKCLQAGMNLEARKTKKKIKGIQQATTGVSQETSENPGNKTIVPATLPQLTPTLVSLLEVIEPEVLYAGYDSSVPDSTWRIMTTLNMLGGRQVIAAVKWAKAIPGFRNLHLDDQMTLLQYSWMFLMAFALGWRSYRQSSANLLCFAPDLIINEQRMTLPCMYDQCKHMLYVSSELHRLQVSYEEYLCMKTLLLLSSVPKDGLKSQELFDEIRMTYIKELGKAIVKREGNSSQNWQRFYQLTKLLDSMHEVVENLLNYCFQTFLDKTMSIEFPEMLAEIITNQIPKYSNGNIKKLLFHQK
Description: Displacement of fluormone from human recombinant glucocorticoid receptor ligand binding domain by fluorescence polarization assay

MCF7 = assay: Cell permeability in human MCF7 cells assessed as glucocorticoid receptor-dependent induction of luciferase activity after 40 hrs by GAL4-responsive luciferase reporter gene assay; settings: MCF7, 40 h
glucocorticoid receptor [2] = assay: Cell permeability in human MCF7 cells assessed as glucocorticoid receptor-dependent induction of luciferase activity at 1 uM after 40 hrs by GAL4-responsive luciferase reporter gene assay relative to control; settings: MCF7 cells with GAL4-responsive luciferase reporter
glucocorticoid receptor [3] = assay: Cell permeability in human HeLa cells assessed as glucocorticoid receptor-dependent induction of luciferase activity at 6 uM after 40 hrs by GAL4-responsive luciferase reporter gene assay relative to control; settings: HeLa cells with GAL4-responsive luciferase reporter
HeLa = assay: Cell permeability in human HeLa cells assessed as glucocorticoid receptor-dependent induction of luciferase activity after 40 hrs by GAL4-responsive luciferase reporter gene assay
glucocorticoid receptor [4] = assay: Cell permeability in human HeLa cells assessed as glucocorticoid receptor-dependent induction of luciferase activity at 0.6 uM after 40 hrs by GAL4-responsive luciferase reporter gene assay relative to control; settings: HeLa cells with GAL4-responsive luciferase reporter

Row | Compound | IC50 (Glucocorticoid receptor [1]) [nM] | further results
1 | C[C@@H]1C[C@H]2[C@@H]3CCC4=CC(=O)C=C[C@]4(C)[C@@]3(F)[C@@H](O)C[C@]2(C)[C@@]1(O)C(=O)CSCCNC(=S)NCCCN(C)CCCNC(=O)CCNC(=O)c1cc(NC(=O)c2cc(NC(=O)c3cc(NC(=O)c4cc(NC(=O)CCCNC(=O)c5nccn5C)cn4C)cn3C)cn2C)cn1C | 16 | 
2 | CC(=O)NCCC(=O)NCCCN(C)CCCNC(=S)NCCSCC(=O)[C@@]1(O)[C@H](C)C[C@H]2[C@@H]3CCC4=CC(=O)C=C[C@]4(C)[C@@]3(F)[C@@H](O)C[C@@]21C | 9.3 | EC50 (MCF7): 250 nM; fold induction at 40 h, 1 µM (glucocorticoid receptor [2]): 1200; fold induction at 40 h, 6 µM (glucocorticoid receptor [3]): 600
3 | C[C@H]1C[C@@H]2[C@H]3CCC4=CC(=O)C=C[C@@]4(C)[C@]3(F)[C@H](O)C[C@@]2(C)[C@]1(O)C(=O)NCCNC(=O)c1cc(NC(=O)c2cc(NC(=O)c3cc(NC(=O)c4nccn4C)cn3C)cn2C)cn1C | 550 | 
4 | C[C@H]1C[C@@H]2[C@H]3CCC4=CC(=O)C=C[C@@]4(C)[C@]3(F)[C@H](O)C[C@@]2(C)[C@]1(O)C(=O)CSCCNC(=S)NCCNC(=O)c1cc(NC(=O)c2cc(NC(=O)c3cc(NC(=O)c4cc(NC(=O)CCCNC(=O)c5cc(NC(=O)c6nccn6C)cn5C)cn4C)cn3C)cn2C)cn1C | 21 | 
5 | C[C@@H]1C[C@H]2[C@@H]3CCC4=CC(=O)C=C[C@]4(C)[C@@]3(F)[C@@H](O)C[C@]2(C)[C@@]1(O)C(N)=O [OXDEX] |  | EC50 (HeLa): 35000 nM
6 | C[C@H]1C[C@@H]2[C@H]3CCC4=CC(=O)C=C[C@@]4(C)[C@]3(F)[C@H](O)C[C@@]2(C)[C@]1(O)C(=O)CSCCNC(=S)NCCNC(=O)c1cc(NC(=O)c2cc(NC(=O)c3cc(NC(=O)c4cc(NC(=O)CCCNC(=O)c5cc(NC(=O)c6cc(NC(=O)c7nccn7C)cn6C)cn5C)cn4C)cn3C)cn2C)cn1C | 21 | 
7 | C[C@H]1C[C@@H]2[C@H]3CCC4=CC(=O)C=C[C@@]4(C)[C@]3(F)[C@H](O)C[C@@]2(C)[C@]1(O)C(=O)CSCCNC(=S)NCCNC(=O)c1cc(NC(=O)c2cncn2C)cn1C | 5.7 | EC50 (HeLa): 750 nM
8 | C[C@H]1C[C@@H]2[C@H]3CCC4=CC(=O)C=C[C@@]4(C)[C@]3(F)[C@H](O)C[C@@]2(C)[C@]1(O)C(=O)NCCNC(=O)c1cc(NC(=O)c2nccn2C)cn1C | 460 | EC50 (HeLa): 4200 nM
9 | C[C@H]1C[C@@H]2[C@H]3CCC4=CC(=O)C=C[C@@]4(C)[C@]3(F)[C@H](O)C[C@@]2(C)[C@]1(O)C(=O)NCCNC(=O)c1cc(NC(=O)c2cc(NC(=O)c3cc(NC(=O)c4cc(NC(=O)CCCNC(=O)c5cc(NC(=O)c6cc(NC(=O)c7cc(NC(=O)c8nccn8C)cn7C)cn6C)cn5C)cn4C)cn3C)cn2C)cn1C | 840 | 
10 | C[C@H]1C[C@@H]2[C@H]3CCC4=CC(=O)C=C[C@@]4(C)[C@]3(F)[C@H](O)C[C@@]2(C)[C@]1(O)C(=O)CSCCNC(=S)NCCNC(=O)c1cc(NC(=O)c2cc(NC(=O)c3nccn3C)cn2C)cn1C | 14 | EC50 (HeLa): 1200 nM; fold induction at 40 h, 6 µM (glucocorticoid receptor [3]): 3400
11 | C[C@H]1C[C@@H]2[C@H]3CCC4=CC(=O)C=C[C@@]4(C)[C@]3(F)[C@H](O)C[C@@]2(C)[C@]1(O)C(=O)CSCCNC(=S)NCCNC(=O)c1cc(NC(=O)c2cc(NC(=O)c3cc(NC(=O)c4cc(NC(=O)CCCNC(=O)c5cc(NC(=O)c6cc(NC(=O)c7cc(NC(=O)c8nccn8C)cn7C)cn6C)cn5C)cn4C)cn3C)cn2C)cn1C | 27 | fold induction at 40 h, 6 µM (glucocorticoid receptor [3]): 1500
12 | C[C@@H]1C[C@H]2[C@@H]3CCC4=CC(=O)C=C[C@]4(C)[C@@]3(F)[C@@H](O)C[C@]2(C)[C@@]1(O)C(=O)CSCCNC(=S)NCCCN(C)CCCNC(=O)CCNC(=O)c1cc(NC(=O)c2cc(NC(=O)c3cc(NC(=O)c4cc(NC(=O)CCCNC(=O)c5cc(NC(=O)c6cc(NC(=O)c7cc(NC(=O)c8nccn8C)cn7C)cn6C)cn5C)cn4C)cn3C)cn2C)cn1C |  | Kd (Nucleic Acid): 5 nM
13 | C[C@H]1C[C@@H]2[C@H]3CCC4=CC(=O)C=C[C@@]4(C)[C@]3(F)[C@H](O)C[C@@]2(C)[C@]1(O)C(=O)CSCCNC(=S)NCCNC(=O)c1cc(NC(=O)c2cc(NC(=O)c3cc(NC(=O)c4nccn4C)cn3C)cn2C)cn1C | 26 | 
14 | C[C@@H]1C[C@H]2[C@@H]3CCC4=CC(=O)C=C[C@]4(C)[C@@]3(F)[C@@H](O)C[C@]2(C)[C@@]1(O)C(=O)CSCCNC(=S)NCCCN(C)CCCNC(=O)CCNC(=O)c1cc(NC(=O)c2cc(NC(=O)c3cc(NC(=O)c4cc(NC(=O)CCCNC(=O)c5cc(NC(=O)c6nccn6C)cn5C)cn4C)cn3C)cn2C)cn1C | 22 | 
15 | C[C@H]1C[C@@H]2[C@H]3CCC4=CC(=O)C=C[C@@]4(C)[C@]3(F)[C@H](O)C[C@@]2(C)[C@]1(O)C(=O)CSCCNC(=S)NCCNC(=O)c1cc(NC(=O)c2cc(NC(=O)c3cc(NC(=O)c4cc(NC(=O)c5nccn5C)cn4C)cn3C)cn2C)cn1C | 34 | 
16 | C[C@@H]1C[C@H]2[C@@H]3CCC4=CC(=O)C=C[C@]4(C)[C@@]3(F)[C@@H](O)C[C@]2(C)[C@@]1(O)C(=O)CSCCNC(=S)NCCCN(C)CCCNC(=O)CCNC(=O)c1cc(NC(=O)c2nccn2C)cn1C | 8.5 | 
17 | C[C@@H]1C[C@H]2[C@@H]3CCC4=CC(=O)C=C[C@]4(C)[C@@]3(F)[C@@H](O)C[C@]2(C)[C@@]1(O)C(=O)CSCCNC(=S)NCCCN(C)CCCNC(=O)CCNC(=O)c1cc(NC(=O)c2cc(NC(=O)c3cc(NC(=O)c4nccn4C)cn3C)cn2C)cn1C | 20 | 
18 | C[C@@H]1C[C@H]2[C@@H]3CCC4=CC(=O)C=C[C@]4(C)[C@@]3(F)[C@@H](O)C[C@]2(C)[C@@]1(O)C(=O)CSCCNC(=S)NCCCN(C)CCCNC(=O)CCNC(=O)c1cc(NC(=O)c2cc(NC(=O)c3cc(NC(=O)c4cc(NC(=O)c5nccn5C)cn4C)cn3C)cn2C)cn1C | 16 | 
19 | C[C@@H]1C[C@H]2[C@@H]3CCC4=CC(=O)C=C[C@]4(C)[C@@]3(F)[C@@H](O)C[C@]2(C)[C@@]1(O)C(=O)CSCCNC(=S)NCCCN(C)CCCNC(=O)CCNC(=O)c1cc(NC(=O)c2cc(NC(=O)c3cc(NC(=O)c4cc(NC(=O)CCCNC(=O)c5cc(NC(=O)c6cc(NC(=O)c7nccn7C)cn6C)cn5C)cn4C)cn3C)cn2C)cn1C | 20 | 
20 | C[C@H]1C[C@@H]2[C@H]3CCC4=CC(=O)C=C[C@@]4(C)[C@]3(F)[C@H](O)C[C@@]2(C)[C@]1(O)C(=O)CSCCNC(=S)NCCNC(=O)c1cc(NC(=O)c2cc(NC(=O)c3cc(NC(=O)c4cc(NC(=O)CCCNC(=O)c5nccn5C)cn4C)cn3C)cn2C)cn1C | 23 | 
21 | CC(=O)NCCNC(=S)NCCSCC(=O)[C@@]1(O)[C@H](C)C[C@H]2[C@@H]3CCC4=CC(=O)C=C[C@]4(C)[C@@]3(F)[C@@H](O)C[C@@]21C | 9.8 | fold induction at 40 h, 0.6 µM (glucocorticoid receptor [4]): 3600; EC50 (HeLa): 290 nM
22 | C[C@@H]1C[C@H]2[C@@H]3CCC4=CC(=O)C=C[C@]4(C)[C@@]3(F)[C@@H](O)C[C@]2(C)[C@@]1(O)C(=O)CSCCNC(=S)NCCCN(C)CCCNC(=O)CCNC(=O)c1cc(NC(=O)c2cc(NC(=O)c3nccn3C)cn2C)cn1C | 12 | 
